What all share (assay): relative viability (nuclei count vs DMSO), 5 days (fraction); higher = more cells survive
Compound in the assay “Vandetanib + Dasatinib”: COc1cc2/c(=N/c3ccc(Br)cc3F)nc[nH]c2cc1OCC1CCN(C)CC1 [Vandetanib] + Cc1nc(Nc2ncc(C(=O)Nc3c(C)cccc3Cl)s2)cc(N2CCN(CCO)CC2)n1 [Dasatinib] (partner 0.075 µM)
In short, it runs like this: (§1)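 Relative viability is defined as nuclei in treated wells over nuclei in vehicle wells. Duplicate plates were run and medians reported. Lung cancer cell lines in 1536-well plates were dosed by pin tool one day after seeding, with one drug or with a fixed anchor-drug dose plus five library-drug doses (not always all listed) in √10 steps, and nuclei were counted after 5 days.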

Compound in the assay “CUDC-101 + Phenformin”: C#Cc1cccc(Nc2ncnc3cc(OC)c(OCCCCCCC(=O)NO)cc23)c1 [CUDC-101] + N=C(N)NC(=N)NCCc1ccccc1 [Phenformin] (partner 250 µM)
A digest of the protocol:
as §1

Compound in the assay “CUDC-101 + Lapatinib”: C#Cc1cccc(Nc2ncnc3cc(OC)c(OCCCCCCC(=O)NO)cc23)c1 [CUDC-101] + CS(=O)(=O)CCNCc1ccc(-c2ccc3ncnc(Nc4ccc(OCc5cccc(F)c5)c(Cl)c4)c3c2)o1 [Lapatinib] (partner 2 µM)
A digest of the protocol: as §1

Compound in the assay “CUDC-101 + Pemetrexed”: C#Cc1cccc(Nc2ncnc3cc(OC)c(OCCCCCCC(=O)NO)cc23)c1 [CUDC-101] + Nc1nc2[nH]cc(CCc3ccc(C(=O)N[C@@H](CCC(=O)O)C(=O)O)cc3)c2c(=O)[nH]1 [Pemetrexed] (partner 0.2 µM)
A digest of the protocol:
as §1

Turning to UMC-11, the relative viability came to 0.442 with Vandetanib + Dasatinib (first compound 0.02 µM); 0.422 with Vandetanib + Dasatinib (first compound 0.06325 µM); 0.43 with Vandetanib + Dasatinib (first compound 0.2 µM); 0.497 with Vandetanib + Dasatinib (first compound 0.6325 µM); 0.462 with Vandetanib + Dasatinib (first compound 2 µM); 0.337 with CUDC-101 + Phenformin (first compound 0.01 µM). For the same cell line, the relative viability in the assay with CUDC-101 + Phenformin (first compound 0.03162 µM) turned out to be 0.285; in the assay with CUDC-101 + Phenformin (first compound 0.1 µM), 0.262; with CUDC-101 + Phenformin (first compound 0.3162 µM), 0.167; in the assay with CUDC-101 + Phenformin (first compound 1 µM) it was 0.102; with CUDC-101 + Lapatinib (first compound 0.01 µM) it was 1.05; in the assay with CUDC-101 + Lapatinib (first compound 0.03162 µM) it was 0.968. In addition, the relative viability was 0.724 in the assay with CUDC-101 + Lapatinib (first compound 0.1 µM); 0.711 with CUDC-101 + Lapatinib (first compound 0.3162 µM); 0.126 in the assay with CUDC-101 + Lapatinib (first compound 1 µM); 0.78 with CUDC-101 + Pemetrexed (first compound 0.01 µM); 0.72 in the assay with CUDC-101 + Pemetrexed (first compound 0.03162 µM); 0.639 in the assay with CUDC-101 + Pemetrexed (first compound 0.1 µM). In addition, the relative viability in the assay with CUDC-101 + Pemetrexed (first compound 0.3162 µM) worked out at 0.415; in the assay with CUDC-101 + Pemetrexed (first compound 1 µM), 0.219.

The values above are taken from the supplement of paper PMC10307832.
